The structures appear in SMILES notation. Where two headings read alike, the source gives them in different places.

The assay has as its target T1, Human M4 (Homo sapiens, UniProt P08173).
T1 construct: expressed in transfected cells
T1 sequence (P08173 1-479): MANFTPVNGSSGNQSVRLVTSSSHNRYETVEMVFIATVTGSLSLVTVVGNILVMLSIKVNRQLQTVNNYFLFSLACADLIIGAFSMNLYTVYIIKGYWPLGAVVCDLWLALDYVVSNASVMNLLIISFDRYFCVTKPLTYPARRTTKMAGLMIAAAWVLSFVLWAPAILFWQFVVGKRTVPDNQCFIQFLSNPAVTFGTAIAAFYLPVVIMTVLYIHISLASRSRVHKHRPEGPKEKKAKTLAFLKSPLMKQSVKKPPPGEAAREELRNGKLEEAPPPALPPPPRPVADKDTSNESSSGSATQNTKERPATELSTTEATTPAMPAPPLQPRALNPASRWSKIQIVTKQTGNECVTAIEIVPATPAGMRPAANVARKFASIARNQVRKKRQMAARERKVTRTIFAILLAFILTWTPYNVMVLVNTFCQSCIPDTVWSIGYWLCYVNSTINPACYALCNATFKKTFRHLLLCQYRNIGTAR
Nature of the assay: mAChR M4 cell-based functional assay (calcium flux, decrease of EC80 acetylcholine response). The note with it: for IC50: decrease of response to EC80 acetylcholine. Here is the method:
Human M4 cDNA, along with the chimeric G protein Gqi5, were transfected into Chinese hamster ovary (CHO-K1) cells purchased from the American Type Culture Collection using Lipofectamine2000. M4/Gqi5/CHO cells were grown in Ham's F-12 medium containing 10% heat-inactivated fetal bovine serum (FBS), 20 mM HEPES, 500 μg/mL G418 sulfate, and 200 μg/mL Hygromycin B.
For high throughput measurement of agonist-evoked increases in intracellular calcium, CHO-K1 cells stably expressing muscarinic receptors were plated in growth medium lacking G418 and hygromycin at 15,000 cells/20 μL/well in Greiner 384-well black-walled, tissue culture (TC)-treated, clear-bottom plates (VWR). Cells were incubated overnight at 37° C. and 5% CO2. The next day, cells were washed using an ELX 405 (BioTek) with assay buffer; the final volume was then aspirated to 20 μL. Next, 20 μL of a 2.3 μM stock of Fluo-4/acetoxymethyl ester (Invitrogen, Carlsbad, Calif.), prepared as a 2.3 mM stock in DMSO and mixed in a 1:1 ratio with 10% (w/v) Pluronic F-127 and diluted in assay buffer, was added to the wells and the cell plates were incubated for 50 min at 37° C. and 5% CO2. Dye was removed by washing with the ELX 405 and the final volume was aspirated to 20 μL. Compound master plates were formatted in a 10 point concentration-response curve (CRC) format (1:3 dilutions) in 100% DMSO with a starting concentration of 10 or 1 mM using a BRAVO liquid handler (Agilent). Test compound CRCs were then transferred to daughter plates (240 nL) using the Echo acoustic plate reformatter (Labcyte, Sunnyvale, Calif.) and then diluted into assay buffer (40 μL) to a 2× stock using a Thermo Fisher Combi (Thermo Fisher Scientific, Waltham, Mass.).
Calcium flux was measured using the Functional Drug Screening System (FDSS) 6000 or 7000 (Hamamatsu Corporation, Tokyo, Japan) as an increase in the fluorescent static ratio. Compounds were applied to cells (20 μL, 2×) using the automated system of the FDSS at 2 seconds into the protocol and the data were collected at 1 Hz. At 143 s, 10 μL of an EC20 concentration of the muscarinic receptor agonist acetylcholine was added (5×), followed by the addition of 12 μL of an EC80 concentration of acetylcholine at the 268 s time point (5×). Agonist activity was analyzed as a concentration-dependent increase in calcium mobilization upon compound addition. Positive allosteric modulator activity was analyzed as a concentration-dependent increase in the EC20 acetylcholine response. Antagonist activity was analyzed as a concentration-dependent decrease in the EC80 acetylcholine response; for the purposes of the tables herein, an IC50 (inhibitory concentration 50) was calculated as a concentration-dependent decrease of the response elicited by an EC80 concentration of acetylcholine. Concentration-response curves were generated using a four-parameter logistical equation in XLFit curve fitting software (HMS, Bridgewater, N.J.) for Excel (Microsoft, Redmond, Wash.) or Prism (GraphPad Software, Inc., San Diego, Calif.) or the Dotmatics software platform (Dotmatics, Bishop's Stortford, UK).
Compounds were synthesized as described above. Activity (IC50 and Emin) was determined in the inAChR M4 cell-based functional assay as described above and the data are shown in Table 2. The compound numbers correspond to the compound numbers used in Examples 1 and 2 and Tables 1 and 2.

[1] abbreviates: M4/Gqi5/CHO-K1 cells, % ACh maximum at 30 μM, read-out: Emin (% ACh maximum at 30 μM).

Turning to `Cc1cc(CN2C[C@@H]3[C@H](C2)[C@H]3Nc2ccc(-c3cc(F)ccc3Cl)nn2)nn1C` [Compound 26, (1R,5S,6s)-N-[6-(2-chloro-5-fluoro-phenyl)pyridazin-3-yl]-3-[(1,5-dimethylpyrazol-3-yl)methyl]-3-azabicyclo[3.1.0]hexan-6-amine], under setting [1], the remaining activity at 30 µM is 13%. Also, the IC50 (M4/Gqi5/CHO-K1 cells) turned out to be 4760 nM.

As to `c1ccc(-c2ccc(N[C@H]3[C@@H]4CN(CC5CCOCC5)C[C@@H]43)nn2)cc1` [Compound 28, (1R,5S,6s)-N-(6-phenylpyridazin-3yl)-3-(tetrahydropyran-4-ylmethyl)-3-azabicyclo[3.1.0]hexan-6-amine], under setting [1], the remaining activity at 30 µM stood at 28%. As for `Fc1ccc(F)c(-c2ccc(N[C@H]3[C@@H]4CN(Cc5ccccn5)C[C@@H]43)nn2)c1` [Compound 34, (1R,5S,6s)-N-[6-(2,5-difluorophenyl)pyridazin-3-yl]-3-(2-pyridylmethyl)-3-azabicyclo[3.1.0]hexan-6-amine], the remaining activity at 30 µM under setting [1] turned out to be 46%. For the compound `Fc1cccc(-c2ccc(N[C@H]3[C@@H]4CN(CC5CCOCC5)C[C@@H]43)nn2)c1` [Compound 9, (1R,5S,6s)-N-[6-(3-fluorophenyl)pyridazin-3-yl]-3-(tetrahydropyran-4-ylmethyl)-3-azabicyclo[3.1.0]hexan-6-amine], the remaining activity at 30 µM under setting [1] was 25%.

As for `Cn1cc2cc(-c3ccc(N[C@H]4[C@@H]5CN(CCC(C)(C)C)C[C@@H]54)nn3)ccc2n1` [Compound 39, (1R,5S,6s)-3-(3,3-dimethylbutyl)-N-[6-(2-methylindazol-5-yl)pyridazin-3-yl]-3-azabicyclo[3.1.0]hexan-6-amine], the remaining activity at 30 µM under setting [1] worked out at 5%. The IC50 (M4/Gqi5/CHO-K1 cells) worked out at 139 nM. With `Cc1nn(C)cc1-c1ccc(CN[C@H]2[C@@H]3CN(CC4CCCCC4)C[C@@H]32)nn1` [Compound 7, (1R,5S,6s)-3-(cyclohexylmethyl)-N-((6-(1,3-dimethylpyrazol-4-yl)pyridazin-3-yl)methyl)-3-azabicyclo[3.1.0]hexan-6-amine], under setting [1], the remaining activity at 30 µM is 32.5%. `CC(C)(C)CCN1C[C@@H]2[C@H](C1)[C@H]2Nc1ccc(-c2cc(F)ccc2F)nn1` [Compound 37, (1R,5S,6s)-N-[6-(2,5-difluorophenyl)pyridazin-3-yl]-3-(3,3-dimethylbutyl)-3-azabicyclo[3.1.0]hexan-6-amine]: the remaining activity at 30 µM under setting [1] worked out at 4%. The IC50 (M4/Gqi5/CHO-K1 cells) worked out at 255 nM.

For `Cc1nn(C)cc1-c1ccc(N[C@H]2[C@@H]3CN(CC4CC5C=CC4C5)C[C@@H]32)nn1` (stereo partly drawn) [Compound 2, (1R,5S,6s)-3-(5-bicyclo[2.2.1]hept-2-enylmethyl)-N-[6-(1,3-dimethylpyrazol-4-yl)pyridazin-3-yl]-3-azabicyclo[3.1.0]hexan-6-amine], the remaining activity at 30 µM under setting [1] amounted to 5%. For the same compound, under “M4/Gqi5/CHO-K1 cells”, the IC50 came out at 100 nM. For `c1ccc2cc(-c3ccc(N[C@H]4[C@@H]5CN(CC6CCOCC6)C[C@@H]54)nn3)ccc2c1` [Compound 29, (1R,5S,6s)-N-[6-(2-naphthyl)pyridazin-3-yl]-3-(tetrahydropyran-4-ylmethyl)-3-azabicyclo[3.1.0]hexan-6-amine], the remaining activity at 30 µM under setting [1] turned out to be 15%. Regarding `Fc1ccc(-c2ccc(N[C@H]3[C@@H]4CN(CC5CCOCC5)C[C@@H]43)nn2)c(Cl)c1` [Compound 14, (1R,5S,6s)-N-[6-(2-chloro-4-fluoro-phenyl)pyridazin-3-yl]-3-(tetrahydropyran-4-ylmethyl)-3-azabicyclo[3.1.0]hexan-6-amine], the remaining activity at 30 µM under setting [1] turned out to be 12%. On to `Fc1ccc(Cl)c(-c2ccc(N[C@H]3[C@@H]4CN(Cc5ccc6c(c5)OCO6)C[C@@H]43)nn2)c1` [Compound 25, (1R,5S,6s)-3-(1,3-benzodioxol-5-ylmethyl)-N-[6-(2-chloro-5-fluoro-phenyl)pyridazin-3-yl]-3-azabicyclo[3.1.0]hexan-6-amine], for which the remaining activity at 30 µM under setting [1] is 6%. Besides, under “M4/Gqi5/CHO-K1 cells”, the IC50 came to 889 nM. With `Cn1cc2cc(-c3ccc(N[C@H]4[C@@H]5CN(CC6CCOCC6)C[C@@H]54)nn3)ccc2n1` [Compound 18, (1R,5S,6s)-N-[6-(2-methylindazol-5-yl)pyridazin-3-yl]-3-(tetrahydropyran-4-ylmethyl)-3-azabicyclo[3.1.0]hexan-6-amine], the remaining activity at 30 µM under setting [1] was found to be 27%. Regarding `c1cc(C2CC2)ncc1-c1ccc(N[C@H]2[C@@H]3CN(CC4CCOCC4)C[C@@H]32)nn1` [Compound 21, (1R,5S,6s)-N-[6-(6-cyclopropyl-3-pyridyl)pyridazin-3-yl]-3-(tetrahydropyran-4-ylmethyl)-3-azabicyclo[3.1.0]hexan-6-amine], under setting [1], the remaining activity at 30 µM is 30%. For `Fc1cccc(Cl)c1-c1ccc(N[C@H]2[C@@H]3CN(CC4CCOCC4)C[C@@H]32)nn1` [Compound 15, (1R,5S,6s)-N-[6-(2-chloro-6-fluoro-phenyl)pyridazin-3-yl]-3-(tetrahydropyran-4-ylmethyl)-3-azabicyclo[3.1.0]hexan-6-amine], under setting [1], the remaining activity at 30 µM stood at 14%. Besides, the concentration for half-maximal inhibition (IC50) (M4/Gqi5/CHO-K1 cells) amounted to 3180 nM. As for `Cc1nn(C)cc1-c1ccc(N[C@H]2[C@@H]3CN(CCC(C)(C)C)C[C@@H]32)nn1` [Compound 1, (1R,5S,6s)-3-(3,3-dimethylbutyl)-N-[6-(1,3-dimethylpyrazol-4-yl)pyridazin-3-yl]-3-azabicyclo[3.1.0]hexan-6-amine], the remaining activity at 30 µM (CHO-K1, read-out: Emin (% ACh maximum at 30 μM)) was determined as 4.8%. The IC50 (M4/Gqi5/CHO-K1 cells) is 280 nM. On to `Fc1cccc(-c2ccc(N[C@H]3[C@@H]4CN(CC5CCOCC5)C[C@@H]43)nn2)c1F` [Compound 31, (1R,5S,6s)-N-[6-(2,3-difluorophenyl)pyridazin-3-yl]-3-(tetrahydropyran-4-ylmethyl)-3-azabicyclo[3.1.0]hexan-6-amine], for which the remaining activity at 30 µM under setting [1] was 27%. Regarding `Clc1ccccc1-c1ccc(N[C@H]2[C@@H]3CN(CC4CCOCC4)C[C@@H]32)nn1` [Compound 11, (1S,5R,6s)-N-[6-(2-chlorophenyl)pyridazin-3-yl]-3-(tetrahydropyran-4-ylmethyl)-3-azabicyclo[3.1.0]hexan-6-amine], under setting [1], the remaining activity at 30 µM came to 11%. Besides, the IC50 (M4/Gqi5/CHO-K1 cells) is 2960 nM. As to `Fc1cccc(-c2ccc(N[C@H]3[C@@H]4CN(CC5CCOCC5)C[C@@H]43)nn2)c1Cl` [Compound 13, (1R,5S,6s)-N-[6-(2-chloro-3-fluoro-phenyl)pyridazin-3-yl]-3-(tetrahydropyran-4-ylmethyl)-3-azabicyclo[3.1.0]hexan-6-amine], the remaining activity at 30 µM under setting [1] is 8%. The IC50 (M4/Gqi5/CHO-K1 cells) was 1850 nM. For `Cc1cc(CN2C[C@@H]3[C@H](C2)[C@H]3Nc2ccc(-c3ccc4nn(C)cc4c3)nn2)nn1C` [Compound 38, (1R,5S,6s)-3-[(1,5-dimethylpyrazol-3-yl)methyl]-N-[6-(2-methylindazol-5-yl)pyridazin-3-yl]-3-azabicyclo[3.1.0]hexan-6-amine], the remaining activity at 30 µM under setting [1] is 40%. Also, the half-maximal inhibitory concentration (IC50) (M4/Gqi5/CHO-K1 cells) was > 10000 nM.

The values are drawn from patent US11414406B2, “Antagonists of the muscarinic acetylcholine receptor M4” (Vanderbilt University, priority 2018, dated 2022).
